Laboratory results taken from patent US20240158446A1, “CYCLIC COMPOUND HAVING SELECTIVE INHIBITORY ACTION ON KRAS OVER HRAS AND NRAS” (CHUGAI SEIYAKU KABUSHIKI KAISHA, priority 2021, published 2024).

Columns and labels:
[1] = molecular target: GDP-bound KRAS wild-type protein (Homo sapiens, UniProt P01116); experiment: Binding to KRAS by surface plasmon resonance (SPR), Single Cycle Kinetics; details: SPR Single Cycle Kinetics, GDP-bound KRAS wild-type protein, 1:1 binding model; read-out: KRAS KD
Sequence of GDP-bound KRAS wild-type protein (P01116 whole entry): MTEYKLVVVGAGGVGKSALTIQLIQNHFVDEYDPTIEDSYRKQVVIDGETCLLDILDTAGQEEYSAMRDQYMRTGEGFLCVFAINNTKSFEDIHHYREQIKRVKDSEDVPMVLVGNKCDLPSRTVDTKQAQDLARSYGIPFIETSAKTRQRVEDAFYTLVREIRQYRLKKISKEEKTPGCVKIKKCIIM

[2] = molecular target: GDP-bound NRAS wild-type protein (Homo sapiens, UniProt P01111); experiment: Binding to NRAS by surface plasmon resonance (SPR), Single Cycle Kinetics; details: SPR KD ratio NRAS/KRAS, class symbols
Sequence of GDP-bound NRAS wild-type protein (P01111 whole entry): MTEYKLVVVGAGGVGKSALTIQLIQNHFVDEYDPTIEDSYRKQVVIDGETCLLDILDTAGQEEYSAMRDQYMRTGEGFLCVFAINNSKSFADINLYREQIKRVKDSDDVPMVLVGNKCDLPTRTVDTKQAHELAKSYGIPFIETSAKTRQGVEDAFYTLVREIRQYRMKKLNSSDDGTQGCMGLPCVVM

[3] = molecular target: GDP-bound HRAS wild-type protein (Homo sapiens, UniProt P01112); experiment: Binding to HRAS by surface plasmon resonance (SPR), Single Cycle Kinetics; details: SPR KD ratio HRAS/KRAS, class symbols
Sequence of GDP-bound HRAS wild-type protein (P01112 whole entry): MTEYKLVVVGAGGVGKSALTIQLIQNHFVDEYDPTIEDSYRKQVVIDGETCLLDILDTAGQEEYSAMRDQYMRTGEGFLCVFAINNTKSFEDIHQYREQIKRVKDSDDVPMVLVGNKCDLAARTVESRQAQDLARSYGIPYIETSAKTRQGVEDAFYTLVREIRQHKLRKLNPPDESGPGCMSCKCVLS

Structure (SMILES) | Kd [1] | NRAS/KRAS (ratio of KD value with respect to GDP-bound NRAS wild-type protein to KD value with respect to KRAS) [2] | HRAS/KRAS (ratio of KD value with respect to GDP-bound HRAS wild-type protein to KD value with respect to KRAS) [3]
CCC[C@H]1C(=O)N[C@@H]([C@@H](C)CC)C(=O)N(C)CC(=O)N(C)[C@H]2C/C=C\CCN(C2=O)[C@@H](Cc2ccc(C(F)(F)F)cc2)C(=O)N(C)CC(=O)N[C@@H](CCc2ccc(C(F)(F)F)c(OC)c2)C(=O)N2CC[C@H]2C(=O)NC2(CC(C)(C)C2)C(=O)N(C)[C@@H](C(CC)CC)C(=O)N(C)[C@H](C(=O)N(C)C)CC(=O)N1C [PP2936] | 2.7 nM | AA (a compound having 20 or more is denoted as AA) | A (a compound having 10 or more and less than 20 is denoted as A)
CCC(CC)[C@H]1C(=O)N(C)[C@H](C(=O)N(C)C)CC(=O)N(C)[C@@H](COC)C(=O)N[C@@H]([C@@H](C)CC)C(=O)N(C)CC(=O)N(C)[C@H]2C/C=C\CCN(C2=O)[C@@H](Cc2ccc(C(F)(F)F)cc2)C(=O)N(C)CC(=O)N[C@@H](CCc2ccc(Cl)c(Cl)c2)C(=O)N2CCOC[C@H]2C(=O)NC2(CC(C)(C)C2)C(=O)N1C [PP2941] | 2.5 nM | AA (a compound having 20 or more is denoted as AA) | A (a compound having 10 or more and less than 20 is denoted as A)
CCC[C@H]1C(=O)N[C@@H]([C@@H](C)CC)C(=O)N(C)CC(=O)N(C)[C@H]2C/C=C\CCN(C2=O)[C@@H](Cc2ccc(C(F)(F)F)cc2)C(=O)N(C)CC(=O)N[C@@H](CCc2cc(Cl)c3sccc3c2)C(=O)N2C[C@H](OCC)C[C@H]2C(=O)NC2(CC(C)(C)C2)C(=O)N(C)[C@@H](C2CCCC2)C(=O)N(C)[C@H](C(=O)N(C)C)CC(=O)N1C [PP2946] | 0.052 nM | A (a compound having 10 or more and less than 20 is denoted as A) | A (a compound having 10 or more and less than 20 is denoted as A)
CCC[C@H]1C(=O)N[C@@H]([C@@H](C)CC)C(=O)N(C)CC(=O)N(C)[C@H]2C/C=C\CCN(C2=O)[C@@H](Cc2ccc(C(F)(F)F)cc2)C(=O)N(C)CC(=O)N[C@@H](CCc2ccc3sc(F)c(C)c3c2)C(=O)N2C[C@H](OCC)C[C@H]2C(=O)NC2(CC(C)(C)C2)C(=O)N(C)[C@@H](C2CCCC2)C(=O)N(C)[C@H](C(=O)N(C)C)CC(=O)N1C [PP2948] | 0.055 nM | A (a compound having 10 or more and less than 20 is denoted as A) | A (a compound having 10 or more and less than 20 is denoted as A)
CCC[C@H]1C(=O)N[C@@H]([C@@H](C)CC)C(=O)N(C)CC(=O)N(C)[C@H]2C/C=C\CCN(C2=O)[C@@H](Cc2ccc(C)cc2)C(=O)N(C)CC(=O)N[C@@H](CCc2ccc3sc(F)c(C)c3c2)C(=O)N2C[C@H](OCC)C[C@H]2C(=O)NC2(CC(C)(C)C2)C(=O)N(C)[C@@H](C2CCCC2)C(=O)N(C)[C@H](C(=O)N(C)C)CC(=O)N1C [PP2949] | 0.059 nM | A (a compound having 10 or more and less than 20 is denoted as A) | A (a compound having 10 or more and less than 20 is denoted as A)
CCC[C@H]1C(=O)N[C@@H]([C@@H](C)CC)C(=O)N(C)CC(=O)N(C)[C@H]2C/C=C\CCN(C2=O)[C@@H](Cc2ccc(C(F)(F)F)cc2)C(=O)N(C)CC(=O)N[C@@H](CCc2cc(Cl)c3c(ccn3C)c2)C(=O)N2C[C@H](OCC)C[C@H]2C(=O)NC2(CC(C)(C)C2)C(=O)N(C)[C@@H](C2CCCC2)C(=O)N(C)[C@H](C(=O)N(C)C)CC(=O)N1C [PP2950] | 0.76 nM | A (a compound having 10 or more and less than 20 is denoted as A) | A (a compound having 10 or more and less than 20 is denoted as A)
CCO[C@@H]1C[C@H]2C(=O)NC3(CCC3)C(=O)N(C)[C@@H](C3CCCC3)C(=O)N(C)[C@H](C(=O)N3CCCCC3)CC(=O)N(C)[C@H]3CCC/C=C/c4ccc(cc4)C[C@@H](C(=O)N(C)CC(=O)N[C@@H](CCc4cc(F)c(C(F)(F)F)c(F)c4)C(=O)N2C1)N1CC/C=C\C[C@@H](C1=O)N(C)C(=O)CN(C1CC1)C(=O)[C@H]([C@@H](C)CC)NC3=O [PP2954] | 0.37 nM | A (a compound having 10 or more and less than 20 is denoted as A) | A (a compound having 10 or more and less than 20 is denoted as A)
CCO[C@@H]1C[C@H]2C(=O)NC3(CCC3)C(=O)N(C)[C@@H](C(CC)CC)C(=O)N(C)[C@H](C(=O)N3CCCCC3)CC(=O)N(C)[C@H]3CCC/C=C/c4ccc(cc4)C[C@@H](C(=O)N(C)CC(=O)N[C@@H](CCc4cc(F)c(C(F)(F)F)c(F)c4)C(=O)N2C1)N1CC/C=C\C[C@@H](C1=O)N(C)C(=O)CN(C1CC1)C(=O)[C@H]([C@@H](C)CC)NC3=O [PP2956] | 1.1 nM | AA (a compound having 20 or more is denoted as AA) | A (a compound having 10 or more and less than 20 is denoted as A)
CCO[C@@H]1C[C@H]2C(=O)NC3(CCC3)C(=O)N(C)[C@@H](C(CC)CC)C(=O)N(C)[C@H](C(=O)N3CCCC3)CC(=O)N(C)[C@H]3CCC/C=C/c4ccc(cc4)C[C@@H](C(=O)N(C)CC(=O)N[C@@H](CCc4cc(F)c(C(F)(F)F)c(F)c4)C(=O)N2C1)N1CC/C=C\C[C@@H](C1=O)N(C)C(=O)CN(C1CC1)C(=O)[C@H]([C@@H](C)CC)NC3=O [PP2957] | 0.23 nM | AA (a compound having 20 or more is denoted as AA) | A (a compound having 10 or more and less than 20 is denoted as A)
CCC(CC)[C@H]1C(=O)N(C)[C@H](C(=O)N(C)C)CC(=O)N(C)[C@@H](COC)C(=O)N[C@@H]([C@@H](C)CC)C(=O)N(C)CC(=O)N(C)[C@H]2C/C=C\CCN(C2=O)[C@@H](Cc2ccc(C(F)(F)F)cc2)C(=O)N(C)CC(=O)N[C@@H](CCc2cc(F)c(C(F)(F)F)c(F)c2)C(=O)N2CC3(CC3)C[C@H]2C(=O)NC2(CC(C)(C)C2)C(=O)N1C [PP2961] | 0.36 nM | AA (a compound having 20 or more is denoted as AA) | A (a compound having 10 or more and less than 20 is denoted as A)
CCC[C@H]1C(=O)N[C@@H]([C@@H](C)CC)C(=O)N(C)CC(=O)N(C)[C@H]2C/C=C\CCN(C2=O)[C@@H](Cc2ccc(C)cc2)C(=O)N(C)CC(=O)N[C@@H](CCc2ccc(Cl)c(Cl)c2)C(=O)N2CCCCC[C@H]2C(=O)NC2(CC(C)(C)C2)C(=O)N(C)[C@@H](C(CC)CC)C(=O)N(C)[C@H](C(=O)N(C)C)CC(=O)N1C [PP2962] | 1.2 nM | AA (a compound having 20 or more is denoted as AA) | A (a compound having 10 or more and less than 20 is denoted as A)
